Test results as given in patent US12692254B2, “Benzimidazole inhibitors of PAD enzymes” (BRISTOL-MYERS SQUIBB COMPANY, priority 2018, dated 2026).

These compounds were tested against human PAD4 (hPAD4) (Homo sapiens, UniProt Q9UM07) (assay: RFMS human PAD4 functional assay (rapid-fire mass spectrum)). Settings: 5 nM hPAD4 enzyme, 250 μM BAEE, 50 μM Calcium; 30 min preincubation, 90 min reaction at 37° C.
Assay type: biochemical
Outline: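 PAD4 (10 nM) preincubated 30 min with compound (top final 50 μM), then BAEE substrate added in pH 7.5 HEPES buffer with DTT, 50 μM calcium, TPEN; 90 min at 37° C. After TCA quench, citrulline derivatized with phenyl glyoxal (4 mM final, 30 min, 37° C) and quantified by RapidFire MS against internal standard.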

Chain of human PAD4 (hPAD4) (Q9UM07 whole entry): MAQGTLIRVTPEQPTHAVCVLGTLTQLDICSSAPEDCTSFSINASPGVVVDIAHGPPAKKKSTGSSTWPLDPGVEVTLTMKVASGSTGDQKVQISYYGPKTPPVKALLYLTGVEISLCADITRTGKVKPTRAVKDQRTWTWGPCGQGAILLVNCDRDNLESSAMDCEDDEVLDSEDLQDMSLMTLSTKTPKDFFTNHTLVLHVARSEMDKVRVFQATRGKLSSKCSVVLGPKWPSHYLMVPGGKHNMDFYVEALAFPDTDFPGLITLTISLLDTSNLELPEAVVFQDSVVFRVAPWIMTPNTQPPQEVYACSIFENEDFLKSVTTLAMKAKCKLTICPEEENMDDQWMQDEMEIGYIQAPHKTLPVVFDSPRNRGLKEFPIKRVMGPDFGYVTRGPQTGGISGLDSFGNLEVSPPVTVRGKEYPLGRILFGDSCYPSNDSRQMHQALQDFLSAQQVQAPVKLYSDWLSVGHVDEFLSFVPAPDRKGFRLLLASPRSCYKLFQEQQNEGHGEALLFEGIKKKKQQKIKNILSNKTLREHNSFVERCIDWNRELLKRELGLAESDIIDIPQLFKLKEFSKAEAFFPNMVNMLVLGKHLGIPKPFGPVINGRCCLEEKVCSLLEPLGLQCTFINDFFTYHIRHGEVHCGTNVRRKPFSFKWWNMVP

| Compound | IC50 [µM] |
| --- | --- |
| COc1cc(C(=O)N2C[C@H]3CC[C@@H]2[C@@H]3N)cc2nc(-c3cc4cccnc4n3C)n(C[C@H]3CCN(c4cncc(C#N)c4)C3)c12 [Example 215, 5[(3S)-3-({5-[(1R,4R,7R)-7-amino-2-azabicyclo[2.2.1]heptane-2-carbonyl]-7-methoxy-2-{1-methyl-1H-pyrrolo[2,3-b]pyridin-2-yl}-1H-1,3-benzodiazol-1-yl}methyl)pyrrolidin-1-yl]pyridine-3-carbonitrile] | 0.148 |
| COc1cc(C(=O)N2C[C@H]3CC[C@@H]2[C@@H]3N)cc2nc(-c3cc4cccnc4n3CC3CC3)n(C[C@@H]3CCN(c4ccnc(C)n4)C3)c12 [Example 216, (1R,4R,7R)-2-{2-[1-(cyclopropylmethyl)-1H-pyrrolo[2,3-b]pyridin-2-yl]-7-methoxy-1-{[(3R)-1-(2-methylpyrimidin-4-yl)pyrrolidin-3-yl]methyl}-1H-1,3-benzodiazole-5-carbonyl}-2-azabicyclo[2.2.1]heptan-7-amine] | 0.153 |
| COc1cc(C(=O)N2C[C@H]3CC[C@@H]2[C@@H]3N)cc2nc(-c3cc4cccnc4n3CC3CC3)n(CC3CCN(c4ccncn4)CC3)c12 [Example 217, (1R,4R,7R)-2-{2-[1-(cyclopropylmethyl)-1H-pyrrolo[2,3-b]pyridin-2-yl]-7-methoxy-1-{[1-(pyrimidin-4-yl)piperidin-4-yl]methyl}-1H-1,3-benzodiazole-5-carbonyl}-2-azabicyclo[2.2.1]heptan-7-amine] | 0.056 |
| COc1cc(C(=O)N2CC3CCC2[C@@H]3N)cc2nc(-c3cc4cccnc4n3CC3CC3)n(CC3CCN(c4ccnc(C#N)n4)CC3)c12 (stereo partly drawn) [Example 218, 4-[4-({5-[(1R,4R.,7R)-7-amino-2-azabicyclo[2.2.1]heptane020 carbonyl]-2-[1-(cyclopropylmethyl)-1H-pyrrolo[2,3-b]pyridin-2-yl]-7-methoxy-1H-1,3-benzodiazol-1-yl}methyl)piperidin-1-yl]pyrimidin-2-carbonitrile] | 0.087 |
| COc1cc(C(=O)N2CC3CCC2[C@@H]3N)cc2nc(-c3cc4cccnc4n3CC3CC3)n(CC3CCN(c4ccnc(C)n4)CC3)c12 (stereo partly drawn) [Example 219] | 0.067 |
| COc1cc(C(=O)N2CC3CCC2[C@@H]3N)cc2nc(-c3cc4cccnc4n3CC3CC3)n(CC3CCN(c4ncccn4)CC3)c12 (stereo partly drawn) [Example 220, (1R,4R,7R)-2-{2-[1-(cyclopropylmethyl)-1H-pyrrolo[2,3-b]pyridin-2-yl]-7-methoxy-1-{[1-(pyrimidin-2-yl)piperidin-4-yl]methyl)-1H-1,3-benzodiazole-5-carbonyl}-2-azabicyc1o[2.2.1]heptan-7-amine] | 0.072 |
| COc1cc(C(=O)N2CC3CCC2[C@@H]3N)cc2nc(-c3cc4cccnc4n3CC3CC3)n(CC3CCN(c4cnc(C#N)nc4)CC3)c12 (stereo partly drawn) [Example 221, 5-[4-({5-[(1R,4R.,7R)-7-amino-2-azabicyclo[2.2.1]heptane-2-carbonyl]-2-[1-(cyclopropylmethyl)-1H-pyrrolo[2,3-b]pyridin-2-yl]-7-methoxy-1H-1,3-benzodiazol-1-yl}methyl)piperidin-1-yl]pyrimidine-2-carbonitrile] | 0.096 |
| COc1nccc(N2CCC(Cn3c(-c4cc5cccnc5n4CC4CC4)nc4cc(C(=O)N5CC6CCC5[C@@H]6N)cc(OC)c43)CC2)n1 (stereo partly drawn) [Example 222, (1R.,4R,7R)-2-{2-[1-(cyclopropylmethyl)-1H-pyrrolo[2,3-b]pyridin-2-yl]-7-methoxy-1-{[1-(2-methoxypyrimidin-4-yl)piperidin-4-yl]methyl}-1H-1,3-benzodiazole-5-carbonyl}-2-azabicyclo[2.2.1]heptan-7-amine] | 0.166 |
| COc1cc(C(=O)N2CC3CCC2[C@@H]3N)cc2nc(-c3cc4ccccc4n3CC3CC3)n(C[C@H]3CCN(c4ccnc(C#N)n4)C3)c12 (stereo partly drawn) [Example 223, 4-[(3S)-3-({5-[(1R,4R,7R)-7-amino-2-azabicyclo[2.2.1]heptane-2-carbonyl]-2-[1-(cyc1opropylmethyl)-1H-indo1-2-yl]-7-methoxy-1H-1,3-benzodiazo1-1-yl}methyl)pyrrolidin-1-yl]pyrimidine-2-carbonitrile] | 0.018 |
| COc1cc(C(=O)N2CC3CCC2[C@@H]3N)cc2nc(-c3cc4ccccc4n3CC3CC3)n(C[C@H]3CCN(c4ccnc(C)n4)C3)c12 (stereo partly drawn) [Example 224, (1R.,4R,7R)-2-{2-[1-(cyclopropylmethyl)-1H-indol-2-yl]-7-methoxy-1-{[(3S)-1-(2-methylpyrimidin-4-yl)pyrrolidin-3-yl]methyl}-1H-1,3-benzodiazole-5-carbonyl}-2-azabicyclo[2.2.1]heptan-7-amine] | 0.019 |
| COc1cc(C(=O)N2CC3CCC2[C@@H]3N)cc2nc(-c3cc4ccccc4n3CC3CC3)n(C[C@H]3CCN(c4cncc(C#N)c4)C3)c12 (stereo partly drawn) [Example 225, 5-[(3S)-3-({5-[(1R,4R,7R)-7-amino-2-azabicyclo[2.2.1]heptane-2-carbonyl]-2-[1-(cyclopropylmethyl)-1H-indo1-2-yl]-7-methoxy-1H-1,3-benzodiazol-1-yl}methyl)pyrrolidin-1-yl]pyridine-3-carbonitrile] | 0.026 |
| COc1cc(C(=O)N2CC3CCC2[C@@H]3N)cc2nc(-c3cc4ccccc4n3CC3CC3)n(C[C@H]3CCN(C(=O)c4ccc(C#N)cc4)C3)c12 (stereo partly drawn) [Example 226, 4-[(3S)-3-({5-[(1R,4R,7R)-7-aminobicyclo[2.2.1]heptane-2-carbonyl]-2-[1-(cyc1opropylmethyl)-1H-indo1-2-yl]-7-methoxy-1H-1,3-benzodiazol-1-yl}methyl)pyrrolidine-1-carbonyl]benzonitrile] | 0.037 |
| COc1cc(C(=O)N2C[C@H]3CC[C@@H]2[C@@H]3N)cc2nc(-c3cc4ccccc4n3CC3CC3)n(C[C@H]3CCN(c4ccnc(C5CC5)n4)C3)c12 [Example 227, (1R,4R,7R)-2-{2-[1-(cyclopropylmethyl)-1H-indo1-2-yl]-1-{[(3S)-1-(2-cyclopropylpyrimidin-4-yl)pyrrolidin-3-yl]methyl}-7-methoxy-1H-1,3-benzodiazole-5-carbonyl}-2-azabicyclo[2.2.1]heptan-7-amine] | 0.041 |
| COc1cc(C(=O)N2C[C@H]3CC[C@@H]2[C@@H]3N)cc2nc(-c3cc4cccnc4n3CC3CC3)n(C3CCN(C(=O)c4cnc(C#N)nc4)CC3)c12 [Example 229, 5-(4-{5-[(1R,4R,7R)-7-amino-2-azabicyclo[2.2.1]heptane-2-carbonyl]-2-[1-(cyclopropylmethyl)-1H-pyrrolo[2,3-b]pyridin-2-yl]-7-methoxy-1H-1,3-benzodiazol-1-yl}piperidine-1-carbonyl)pyrimidine-2-carbonitrile] | 0.219 |
| COc1cc(C(=O)N2C[C@H]3CC[C@@H]2[C@@H]3N)cc2nc(-c3cc4cccnc4n3CC3CC3)n(CC3CCN(C(=O)c4ccnc(Cl)n4)CC3)c12 [Example 230, (1R,4R,7R)-2-(1-{[1-(2-chloropyrimidine-4-carbonyl)piperidin-4-yl]methyl}-2-[1-(cyclopropylmethyl)-1H-pyrrolo[2,3-b]pyridin-2-yl]-7-methoxy-1H-1,3-benzodiazole-5-carbonyl)-2-azabicyclo[2.2.1]heptan-7-amine] | 0.237 |
| COc1cc(C(=O)N2C[C@H]3CC[C@@H]2[C@@H]3N)cc2nc(-c3cc4cccnc4n3C)n(C[C@@H]3CCN(c4ncccn4)C3)c12 [Example 232, (1R,4R,7R)-2-(7-methoxy-2-{1-methyl-1H-pyrrolo[2,3-b]pyridin-2-yl}-1-{[(3S)-1-(pyrimidin-2-yl)pyrrolidin-3-yl]methyl}-1H-1,3-benzodiazole-5-carbonyl)-2-azabicyclo[2.2.1]heptan-7-amine] | 0.31 |
| COc1cc(C(=O)N2C[C@H]3CC[C@@H]2[C@@H]3N)cc2nc(-c3cc4cccnc4n3CC3CC3)n(CC3CCN(C(=O)c4ccncn4)CC3)c12 [Example 233, (1R,4R,7R)-2-{2-[1-(cyclopropylmethyl)-1H-pyrrolo[2,3-b]pyridin-2-yl]-7-methoxy-1-{[1-(pyrimidine-4-carbonyl)piperidin-4-yl]methyl}-1H-1,3-benzodiazole-5-carbonyl}-2-azabicyclo[2.2.1]heptan-7-amine] | 0.315 |
| COc1cc(C(=O)N2CC3CCC2[C@@H]3N)cc2nc(-c3cc4cccnc4n3CC3CC3)n(CC3CCN(C(=O)c4ncccn4)CC3)c12 (stereo partly drawn) [Example 236, (1R,4R.,7R)-2-{2-[1-(cyclopropylmethyl)-1H-pyrrolo[2,3-b]pyridin-2-yl]-7-methoxy-1-{[1-(pyrimidine-2-carbonyl)piperidin-4-yl]methyl}-1H-1,3-benzodiazole-5-carbonyl}-2-azabicyclo[2.2.1]heptan-7-amine] | 0.402 |
| COc1cc(C(=O)N2CC3CCC2[C@@H]3N)cc2nc(-c3cc4cccnc4n3CC3CC3)n(C3CCN(c4ccnc(C#N)n4)CC3)c12 (stereo partly drawn) [Example 237, 4-(4-{5-[(1R,4R,7R)-7-amino-2-azabicyclo[2.2.1]heptane-2-carbonyl]-2-[1-(cyclopropylmethyl)-1H-pyrrolo[2,3-b]pyridin-2-yl]-7-methoxy-1H-1,3-benzodiazol-1-yl}piperidin-l-yl)pyrimidine-2-carbonitrile] | 0.54 |
| COc1cc(C(=O)N2CC3CCC2[C@@H]3N)cc2nc(-c3cc4cccnc4n3CC3CC3)n(C3CCN(c4ccnc(C)n4)CC3)c12 (stereo partly drawn) [Example 238, (1R.,4R,7R)-2-{2-[1-(cyclopropylmethyl)-1H-pyrrolo[2,3-b]pyridin-2-yl]-7-methoxy-1-[1-(2-methylpyrimidin-4-yl)piperidin-4-yl]-1H-1,3-benzodiazole-5-carbonyl}-2-azabicyclo[2.2.1]heptan-7-amine] | 0.922 |
| COc1cc(C(=O)N2CC3CCC2[C@@H]3N)cc2nc(-c3cc4cccnc4n3CC3CC3)n(C3CCN(C(=O)c4ccnc(Cl)c4)CC3)c12 (stereo partly drawn) [Example 239, (1R,4R.,7R)-2-{1-[1-(2-chloropyridine-4-carbonyl)piperidin-4-yl]-2-[1-(cyclopropylmethyl)-1H-pyrrolo[2,3-b]pyridin-2-yl]-7-methoxy-1H-1,3-benzodiazole-5-carbonyl}-2-azabicyclo[2.2.1]heptan-7-amine] | 0.927 |
